# Entries after “also recorded” stand apart in the source; their conditions may differ.
# Experiments:
# MDA-MB-231 cells [1] = test: Membrane fluidity by EPR (S parameter), MDA-MB-231; assay type: cell-based, human; settings: MDA-MB-231, pretreatment with non-cytotoxic dose
# Procedure: (§1) Membrane fluidity was determined by a spin-labeling method using EPR, as previously described^27. Briefly, plasma membranes of living cells were labeled by incubating cells for 15 min at 37° C. with 12-doxyl stearic acid (36 μg/mL), a fatty acid with a stable nitroxide radical ring at the C-12 position. Cells were then washed twice with PBS to remove excess 12-doxyl stearic acid and EPR spectra of the labeled samples were acquired at ambient temperature on a Bruker Elexsys EPR spectrometer operating at 3509.25 G center field, 20 mW microwave power, 9.86 GHz microwave frequency, 1.77 G modulation amplitude, and 100 kHz modulation frequency. Fluidity of the spin-labeled membranes was quantified by calculating the S parameter. An increase in the S parameter reflects a decrease in membrane fluidity, and vice versa.
# MDA-MB-231 cells [2] = test: Boyden chamber cell migration, MDA-MB-231; assay type: cell-based, human; settings: MDA-MB-231, pretreatment with non-cytotoxic dose, cl-CD95L
# Procedure: (§2) Boyden chambers contained membranes with a pore size of 8 μm (Millipore, Molsheim, France). After hydration of the membranes, mesenchymal cells (10^5 cells per chamber) or epithelial cells (3×10^5 cells per chamber) were added to the top chamber in low serum (1%)-containing medium. The bottom chamber was filled with low serum (1%)-containing medium in the presence or absence of cl-CD95L (100 ng/mL). Cells were cultured for 24 h at 37° C. To quantify migration, cells were mechanically removed from the top side of the membrane using a cotton-tipped swab, and migrating cells from the reverse side were fixed with methanol and stained with Giemsa. For each experiment, five representative pictures were taken for each insert, then cells were lyzed and absorbance at 560 nm correlated to the amount of Giemsa stain was measured.
# lung cancer cells = settings: via activation of protein phosphatase 2A; cited from earlier work
# [3] = test system: mesenchymal breast cancer cells; test: Boyden chamber cell migration, mesenchymal breast cancer cells; assay type: cell-based, human; settings: non-cytotoxic concentration; for basal migration: Boyden chamber 24 h; for CD95-mediated migration: cl-CD95L 100 ng/mL 24 h, Boyden chamber
# Procedure: FIG. 1. Treatment of mesenchymal breast cancer cells with a non-toxic amount of exogenous C16:0 ceramide reduces plasma membrane fluidity and prevents basal and CD95-mediated cell migration. A. The indicated cells were pre-incubated with or without a non-cytotoxic dose (1 μM) of C16:0 ceramide (C16-Cer) for 60 min, and were then incubated with or without cl-CD95L (100 ng/mL) for 30 min. Membrane fluidity was assessed by EPR. Values are means±SEM of four independent experiments (*, p<0.05; ns, not significant). B. Indicated cells were pretreated with or without C16:0 ceramide ([…]) for 60 min and were then incubated with or without cl-CD95L (100 ng/mL) for 24 h. Cell migration was assessed by the Boyden chamber assay. Bars=70 μm. Giemsa-stained cells that migrated to the lower side of the membrane were lysed and absorbance at 560 nm was recorded. Values represent the means and SEM of three independent experiments (*p<0.05).
# as §2
# [4] = test system: mesenchymal breast cancer cells; test: Membrane fluidity by EPR, mesenchymal breast cancer cells; assay type: cell-based, human; settings: for CD95-mediated increase in membrane fluidization: 1 μM pre-incubation 60 min, then cl-CD95L 100 ng/mL 30 min
# Procedure: FIG. 1. Treatment of mesenchymal breast cancer cells with a non-toxic amount of exogenous C16:0 ceramide reduces plasma membrane fluidity and prevents basal and CD95-mediated cell migration. A. The indicated cells were pre-incubated with or without a non-cytotoxic dose (1 μM) of C16:0 ceramide (C16-Cer) for 60 min, and were then incubated with or without cl-CD95L (100 ng/mL) for 30 min. Membrane fluidity was assessed by EPR. Values are means±SEM of four independent experiments (*, p<0.05; ns, not significant). B. Indicated cells were pretreated with or without C16:0 ceramide ([…]) for 60 min and were then incubated with or without cl-CD95L (100 ng/mL) for 24 h. Cell migration was assessed by the Boyden chamber assay. Bars=70 μm. Giemsa-stained cells that migrated to the lower side of the membrane were lysed and absorbance at 560 nm was recorded. Values represent the means and SEM of three independent experiments (*p<0.05). Membrane fluidity was determined by a spin-labeling method using EPR, as previously described^27. Briefly, plasma membranes of living cells were labeled by incubating cells for 15 min at 37° C. with 12-doxyl stearic acid (36 μg/mL), a fatty acid with a stable nitroxide radical ring at the C-12 position. Cells were then washed twice with PBS to remove excess 12-doxyl stearic acid and EPR spectra of the labeled samples were acquired at ambient temperature on a Bruker Elexsys EPR spectrometer operating at 3509.25 G center field, 20 mW microwave power, 9.86 GHz microwave frequency, 1.77 G modulation amplitude, and 100 kHz modulation frequency. Fluidity of the spin-labeled membranes was quantified by calculating the S parameter. An increase in the S parameter reflects a decrease in membrane fluidity, and vice versa.
# [5] = test system: mesenchymal breast cancer cells; test: Cytotoxicity of exogenous C16:0 ceramide; assay type: cell-based, human; settings: 1 μM
# [6] = test system: CD95-mediated PI3K signaling pathway; test: Akt serine 473 phosphorylation (CD95-mediated PI3K signaling); assay type: cell-based
# Procedure: Cells were lyzed for 30 min at 4° C. in lysis buffer (25 mM HEPES pH 7.4, 1% (v/v) Triton X-100, 150 mM NaCl, and 2 mM EGTA supplemented with a mixture of protease inhibitors). Protein concentration was determined by the bicinchoninic acid method (Pierce, Rockford, Ill., USA) according to the manufacturer's protocol. Proteins were resolved by 8, 10, or 12% SDS-PAGE and transferred to a nitrocellulose membrane (GE Healthcare, Buckinghamshire, UK). The membrane was blocked for 15 min with TBST (50 mM Tris, 160 mM NaCl, and 0.05% (v/v) Tween 20, pH 7.4) containing 5% (w/v) dried skimmed milk (TBSTM), and was then incubated overnight at 4° C. with the primary antibody diluted in TBSTM. The membrane was washed with TBST and was then incubated with peroxidase-labeled anti-mouse IgG1 or IgG2a (CliniSciences, Nanterre, France) for 45 min. Proteins were visualized using the enhanced chemiluminescence substrate kit (ECL RevelBlOt®, Ozyme, Saint Quentin en Yvelines, France).
# [7] = test system: epithelial cell line MCF7; test: Boyden chamber cell migration, MCF7; assay type: cell-based, human; settings: MCF7, non-cytotoxic concentration
# Procedure: as §2
# [8] = test system: epithelial cell line MCF7; test: Membrane fluidity by EPR, MCF7; assay type: cell-based, human; settings: MCF7, non-cytotoxic concentration, 48 hours
# Procedure: as §1
# CerS = settings: cited from earlier work
# NMuMG cells = settings: cited from earlier work
compound,measurement,setting,value
CCCCCCCCC1CC1CCCCCCCC(=O)OCCOCCOC (centres unmarked) [A2C],basal membrane fluidity,MDA-MB-231 cells [1],significantly enhanced
same,CD95-mediated increase in plasma membrane fluidity,MDA-MB-231 cells [1]; then cl-CD95L,significantly enhanced
same,CD95-mediated migration,MDA-MB-231 cells [2],stimulated
CCCCCCCCCCCCC/C=C/[C@@H](O)[C@H](CO)NC(C)=O [C2-ceramide],migration of lung cancer cells in response to nicotine,lung cancer cells,inhibit
"CCCCCCCCCCCCC/C=C/[C@@H](O)[C@H](CO)NC(=O)CCCCCCCCCCCCCCC [C16-ceramide, N-palmitoyl-D-sphingosine]",basal migration,[3],impaired
same,basal migration,[3]; listed as C16:0 ceramide,prevents
same,CD95-mediated migration,[3],impaired; also recorded: inhibited
same,CD95-mediated migration,[3]; listed as C16:0 ceramide,prevents
same,CD95-mediated increase in membrane fluidization,[4],inhibited
same,CD95-mediated increase in membrane fluidization,[4]; listed as C16:0 ceramide,completely inhibited
same,basal S parameter,"[4]; non-cytotoxic concentration (1 μM), increase in S = decrease in fluidity",slightly increased
same,plasma membrane fluidity,[4]; non-toxic amount of exogenous C16:0 ceramide,reduces
same,cytotoxicity,[5],non-cytotoxic
same,CD95-mediated PI3K signaling pathway (phosphorylation at serine 473 of Akt),[6],did not affect
"CCCC[C@@H](C)[C@@H](OC(=O)C[C@@H](CC(=O)O)C(=O)O)[C@H](C[C@@H](C)C[C@H](O)CCCC[C@@H](O)C[C@H](O)[C@H](C)N)OC(=O)C[C@@H](CC(=O)O)C(=O)O [FB1, Fumonisin B1]",CD95-mediated cell migration,[7],enhanced
same,basal cell migration,[7],enhanced
same,CD95-induced membrane fluidity,[8],"slightly, but significantly, increased"
same,basal membrane fluidity,[8],"slightly, but significantly, increased"
same,CerS activity,CerS,selectively inhibits
gangliotetraosylceramide [Gg4],reversal of TGF-β-induced EMT,NMuMG cells,does

# Source: patent US9851358B2, “Methods and pharmaceutical compositions for preventing or reducing metastatic dissemination” (INSERM (Institut National de la Sante et de la Recherche …, priority 2014, dated 2017)
